The data set can be described thus: Color difference after degasification of vial at various pressures and replacement by nitrogen. The settings on record: 60° C., n = 6. The format is physicochemical. As for the experimental part:
As the monohydrate, the powdery charged preparations for injection of the novel carbapenem crystals (25 mg/vial) obtained by degasification of the air in the vial at 100, 10, 1, 0.1 and 0.01 hPa (hectopascal) respectively and subsequent replacement by nitrogen according to the method in Example 2-3 (replacement by nitrogen) were stored at 60° C. for 1 or 4 weeks (N=6) and then measured for their color difference (ΔE). The oxygen concentrations in the preparations in vials degasified at 100, 10, 1, 0.1, 0.01 hPa (hectopascal) were measured by an oxygen analyzer (RO-101, Iizima Kogyo). As the trihydrate, the powdery charged preparations of the novel carbapenem hydrochloride crystals (25 mg/vial) obtained in the method in Example 1-9 (replacement by nitrogen) were degasified in the same manner, stored at 80° C. for 1 week (N=6) and then measured for their color difference (ΔE). As the control, the powdery charged preparation of the novel carbapenem hydrochloride crystals (25 mg/vial) subjected to neither degasification nor replacement by nitrogen was used.

Where a name gives a salt, the structure may show the parent alone.

For the compound `C[C@@H](O)[C@H]1C(=O)N2C(C(=O)O)=C(S[C@@H]3CN[C@H]([C@H](O)[C@@H]4CCNC4)C3)[C@H](C)[C@H]12` [monohydrate, (+)-(1R,5S,6S)-6-[(R)-1-Hydroxyethyl]-1-methyl-2-[(2S,4S)-2-[(3R)-pyrrolidine-3-yl-(R)-hydroxymethyl]pyrrolidine-4-yl]thio-1-carbapen-2-em-3-carboxylic acid monohydrochloride monohydrate], the “color difference (ΔE)” value (control: neither degasification nor replacement by nitrogen, 1 week) was 7.37; the “color difference (ΔE)” value (control: neither degasification nor replacement by nitrogen, 4 weeks) was 14.94; the “color difference (ΔE)” value (vial degasified at 0.01 hPa (oxygen concentration 0.24 ± 0.03%), replaced by nitrogen, 1 week) is reported as 3.11; the “color difference (ΔE)” value (vial degasified at 0.01 hPa (oxygen concentration 0.24 ± 0.03%), replaced by nitrogen, 4 weeks) was determined as 4.91; the “color difference (ΔE)” value (vial degasified at 0.1 hPa (oxygen concentration 0.21 ± 0.01%), replaced by nitrogen, 1 week) was determined as 2.28; the “color difference (ΔE)” value (vial degasified at 0.1 hPa (oxygen concentration 0.21 ± 0.01%), replaced by nitrogen, 4 weeks) stood at 4.98. Besides, the “color difference (ΔE)” value was determined as 2.62 (vial degasified at 1 hPa (oxygen concentration 0.24 ± 0.04%), replaced by nitrogen, 1 week); 4.51 (vial degasified at 1 hPa (oxygen concentration 0.24 ± 0.04%), replaced by nitrogen, 4 weeks); 2.40 (vial degasified at 10 hPa (oxygen concentration 0.29 ± 0.08%), replaced by nitrogen, 1 week); 5.69 (vial degasified at 10 hPa (oxygen concentration 0.29 ± 0.08%), replaced by nitrogen, 4 weeks); 2.85 (vial degasified at 100 hPa (oxygen concentration 3.01 ± 1.12%), replaced by nitrogen, 1 week); 8.02 (vial degasified at 100 hPa (oxygen concentration 3.01 ± 1.12%), replaced by nitrogen, 4 weeks).

The record behind these values is patent publication US7084268B1, “Carbapenem compound crystals and interjection preparations” (Eisai Co., Ltd., priority 1999, dated 2006).
